Results from PubChem BioAssay AID179 (DTP/NCI, 2004).
Values joined by “and” are separate entries in the source; they are usually repeats but may differ in a detail not shown here. Identical values can stand only once. Active and inactive are the calls of the source.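 The calls were made as follows: active = compounds giving half or more protection of infected cells from virus-caused growth loss, again on retest; inactive = the rest.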

System: CEM cells HIV-1 protection, formazan growth assay
Test: NCI AIDS Antiviral Assay
Conditions: for IC50: measured here: growth of uninfected CEM cells
Method in brief: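 Soluble formazan readout of cell growth; CEM cells ± HIV-1; 5 drug concs. ≥50% protection → retest; ≥50% again = moderately active; reproducible 100% = confirmed active.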

Compound | outcome | EC50 | IC50
O=C(CC(=O)N1N=C(n2ccc3ccccc32)CC1c1ccccc1)Nc1cccc(Cl)c1 (configuration not stated) | inactive | – | –
C[C@@H]1O[C@]2(O)[C@@H]3CCCN3S(=O)(=O)CCN2C1=O | – | > 912 µM | > 912 µM
CCCCCCCCCCCCCCCC1(OC)C[N+](C)(C)CCO1 (configuration not stated) | – | > 200 µM | 1 µM
CN(C)C1C(=O)C(C(=O)NCNC(CO)(CO)CO)=C(O)C2(O)C(=O)C3=C(O)c4c(O)cccc4C(C)(O)C3CC12 (configuration not stated) | – | > 200 µM | 132 µM
O=C(O)c1ccc(CS(=O)(=O)c2ccc(Cl)cc2)c([N+](=O)[O-])c1 | – | > 708 µM | 324 µM
CCCCCCCCCCOC(=O)NCCC | inactive | – | –
CCOC(=O)c1c(OC)cc2n(c1=O)Cc1cc3ccccc3nc1-2 | – | > 10 µM | > 10 µM
COC(=O)c1c/c(=N\NC(=O)CC(=O)Nc2ccccc2Cl)c2ccccc2o1 | – | 166 µM | 302 µM
O=c1n(CCCN2CCN(c3cccc(Cl)c3)CC2)nc2n1-c1ccc3ccccc3c1SC2 | – | > 200 µM | > 200 µM
CCC1OC2C(CC=C(C)C)=C3OC(C)(O)C(C)(CC)C(O)C3=C3OC(=O)C=C1C32 (configuration not stated) | – | > 200 µM | 30.9 µM
COc1cc(O)c2c(c1)C(=O)C=C(Cl)C2=O | inactive | – | –
N#C/C(=C/c1ccc2c(c1)OCO2)C(=O)c1ccccc1 | – | > 36.3 µM | > 36.3 µM
N.N.N.N.N.[Co+3].[I-].[N-]=[N+]=[N-] | inactive | – | –
COc1cc(Cc2nnc(Nc3ccccc3)[nH]c2=O)cc(OC)c1OC | – | > 257 µM | > 257 µM
CC(C)[Si]1(C(C)C)OCC2OC(n3c(C(=O)c4ccccc4)cc(=O)[nH]c3=O)CC2O[Si](C(C)C)(C(C)C)O1 (configuration not stated) | – | > 200 µM | 9.12 µM
CC1=C(C)CC2(SC1)C(=O)c1ccccc1C2=O | inactive | – | –
CCC[CH2][Sn]([CH2]CCC)([CH2]CCC)[CH2]S(=O)(=O)O | inactive | – | –
Cc1ccc(C)c(NC(=O)c2cc(-c3ccc([N+](=O)[O-])cc3)nc(N)n2)c1 | – | > 70.8 µM | > 70.8 µM
CNNC1=NS(=O)(=O)c2cc(C#N)c(Cl)cc2S1 | inactive | – | –
CN(C)C=NCc1ccc2c(c1)OCO2 | – | 51.3 µM | 479 µM
CN(C)c1nc(=Nc2ccc3ccccc3c2)ss1 | inactive | – | –
COc1cc(/C=N\NS(=O)(=O)c2ccc([N+](=O)[O-])cc2)c([N+](=O)[O-])cc1OC | – | > 33.1 µM | > 33.1 µM
CCCc1ccc(OC2OC(CO)C(O)C(O)C2O)cc1 (configuration not stated) | – | > 302 µM | > 302 µM and 85.1 µM

Compound | outcome | EC50 | IC50
COc1cc(SSc2cc(OC)c(OC)cc2C(=O)N2CSC[C@H]2C(=O)O)c(C(=O)N2CSC[C@@H]2C(=O)O)cc1OC | – | > 200 µM | > 200 µM
CSC1=Nc2cccnc2Nc2cscc21 | – | > 200 µM | 1.26 µM
N=C1C(=N)c2ccccc2-c2ccccc21.[Cl-].[Rh+3].c1cnc2c(c1)ccc1cccnc12.c1cnc2c(c1)ccc1cccnc12 | inactive | – | –
CCCNC(=O)Cn1c(C)cc2ccccc21 | – | > 200 µM | > 200 µM
O=c1c2cc3c(cc2c2cccc4ccn1c42)OCO3 | inactive | – | –
CC(C)N=C(NC#N)NS(=O)(=O)c1cnccc1NC1CCCCCCC1 | – | > 200 µM | > 200 µM
CCOC(=O)CSc1nc2ccccc2c(=O)n1N | – | > 200 µM | > 200 µM
N#CNC1=NC(N)C(c2nc3ccccc3[nH]2)=C(CCCC(=O)Nc2cccc([N+](=O)[O-])c2)N1 (configuration not stated) | – | > 77.6 µM | > 77.6 µM
CCOc1cnc(C(O)(c2ccccc2)c2ccccc2)o1 | – | 19.1 µM | 148 µM
O=C(c1ccc(S(=O)(=O)c2ccccc2)cc1)c1ccc(S(=O)(=O)c2ccccc2)cc1 | – | > 200 µM | > 200 µM
CCC[CH2][Sn]([CH2]CCC)([O]C(=O)c1cc(F)ccc1F)[O][Sn]([CH2]CCC)([CH2]CCC)[O]C(=O)c1cc(F)ccc1F | – | > 9.12 µM | 1.74 µM
O=C1OCOC2(CCCC2)C1c1ccccc1 (configuration not stated) | – | > 200 µM | 120 µM
Clc1ccc(C2=Nc3ccccc3SC(c3cccs3)C2)cc1 (configuration not stated) | – | > 7.59 µM | > 7.59 µM
O=C1NC(=S)S/C1=C/c1ccco1 | – | > 123 µM | 72.4 µM
CCCCCCC[CH2][Sn]([Cl])([Cl])[CH2]CCCCCCC | inactive | – | –
C=CCCC(O)c1cc(C)c(O)c(C)c1 (configuration not stated) | – | > 457 µM | 229 µM
CCn1cnc2c(NC(C)=O)ncnc21 | – | > 200 µM | > 200 µM
CC1CC(=O)N(N(C)C)C(C#N)(C#N)C1(C#N)C#N (configuration not stated) | – | > 200 µM | 3.16 µM
Clc1cnc(Oc2ccccc2)c2ccccc12 | – | > 200 µM | 64.6 µM
CC(C)(C)C(=O)C(C(=O)C(C)(C)C)C(=O)C(C)(C)C | inactive | – | –
COc1ccc(-c2c3c(n(C4OC(CO)C(O)C(O)C4O)c(=S)c2C#N)CCCC3)cc1 (configuration not stated) | – | > 200 µM | 55 µM
O=C(Nc1ccc(Cl)cc1Cl)C(=O)Nn1c(=S)[nH]c2ccccc2c1=O | inactive | – | –
Nc1c2nc(Nc3ccccc3)sc2nc(=S)n1-c1ccc([N+](=O)[O-])cc1 | – | > 50.1 µM | > 50.1 µM

Compound | outcome | EC50 | IC50
N=C(N)SCN1C(=O)c2ccccc2C1=O | – | > 200 µM | > 200 µM
CC1(C)CC2C(=O)c3ccccc3NC2c2ccccc21 (configuration not stated) | – | > 2 µM | 0.269 µM
CCN(CC)CCCCC1CCN(CC(=O)N2CC(C)C(=O)Nc3ccccc32)CC1 (configuration not stated) | – | > 251 µM | > 251 µM
COc1ccc(N=Nc2c(C)c(C#N)c(=S)n(C3OC(CO)C(O)C(O)C3O)c2-c2ccccc2)cc1 (configuration not stated) | – | > 200 µM | 28.2 µM
COC(=O)C1CCC(=O)N1C(c1cc(OC)c(OC)c(OC)c1)c1cc(OC)c(OC)c(OC)c1 (configuration not stated) | – | > 200 µM | 55 µM
CC(=O)Nc1cccc(S(=O)(=O)c2cccc(NC(=O)c3ccccc3SC(=O)CCCC[n+]3ccccc3)c2)c1 | – | 17.8 µM | > 200 µM
CNNCc1ccc(C(=O)NC(C)C)cc1 | – | > 977 µM | 229 µM
CCC[CH2][Ge]([CH2]CCC)([CH2]CCC)[O]C(=O)C(OC(C)=O)c1ccccc1 (configuration not stated) | – | > 151 µM | 4.27 µM
COC(=O)c1c(C(=O)OC)c(C(=O)OC)c2c([nH]c3ccccc32)c1C(=O)OC | inactive | – | –
Cc1ccsc1/C=N/Nc1nc2ccccc2s1 | – | > 200 µM | 105 µM
CC1CC(C)CN(Cc2cccnc2)C1 (configuration not stated) | inactive | – | –
O=C1Cc2c([nH]c3cc(Br)ccc23)-c2ccccc2N1 | – | > 200 µM | 8.91 µM
CC(C)C/C(CC(=O)CCC(=O)Nc1ccccc1[N+](=O)[O-])=N\NC(=O)c1cc2ccccc2cc1O | – | > 70.8 µM | 11.7 µM
CCCCCCC1N(Cc2ccc(Cl)cc2)CCCN1Cc1ccc(Cl)cc1 | – | > 200 µM | 12 µM
CCOC(=O)C1=C(Nc2cccc3ccccc23)OC/C1=N\NC(=O)c1ccccc1O | – | > 60.3 µM | 17.4 µM
CC(C)(C)c1cc(C(C)(C)O)c2c(c1)C(C)(C)OS2(C)Cl (configuration not stated) | – | > 200 µM | 112 µM
Cc1ccc(Cc2nc(=S)[nH][nH]2)cc1 | – | > 200 µM | 120 µM
Cc1ccc2c(c1)[nH]c(=S)n2C=C(C(N)=O)C(N)=O | – | > 200 µM | > 200 µM
Oc1c(OCc2nnc(CCCCCCCCc3nnc(COc4ccc5ccccc5c4O)o3)o2)ccc2ccccc12 | – | > 200 µM | > 200 µM
Cc1c(C(=O)CSc2nc3ccccc3[nH]2)c(=O)n(-c2ccccc2)n1C | – | > 95.5 µM | > 95.5 µM
Nc1nc(Cl)cc(NCCCCCCCCNc2cc(Cl)nc(N)n2)n1 | inactive | – | –
COc1cc(C2SC(N)=Nc3c2c(C)nn3C(=O)c2ccc(Cl)cc2)ccc1O (configuration not stated) | – | > 200 µM | > 200 µM
NC(=O)NC(=NCc1ccccc1)NCc1ccccc1 | – | > 776 µM | 107 µM

Compound | outcome | EC50 | IC50
COc1ccc([C@@H]2CC(=O)NCCCCNCCCN2)cc1 | – | > 200 µM | > 200 µM
Nc1nc(F)nc2c1ncn2CC(O)CO (configuration not stated) | – | > 1100 µM | 1.78 µM
COCCCCCCCCCCCC(=O)OCC1OC(n2cc(C)c(=O)[nH]c2=O)CC1N=[N+]=[N-] (configuration not stated) | – | 0.0269 µM | 34.7 µM
CN(/N=C/c1cccc2cccnc12)c1ccc([N+](=O)[O-])cc1[N+](=O)[O-] | inactive | – | –
Nc1ccc2c(c1)C(=O)N1CCC[C@H]1C(=O)N2 | – | > 200 µM | > 200 µM
CC(C#N)(c1ccccc1)N(CCc1ccccc1)C(=O)Oc1ccccc1 (configuration not stated) | – | > 200 µM | > 200 µM
CC(C)(C)OC(=O)N1CCC(NC(=O)NC2CCN(C(=O)OC(C)(C)C)CC2)CC1 | – | > 200 µM | > 200 µM
CCOC(=O)C1=C(C)N(NC(=O)Nc2ccccc2)C2(N)N(NC(=O)Nc3ccccc3)C(C)=C(C(=O)OCC)C12C#N (configuration not stated) | – | > 31.6 µM | > 31.6 µM
CN(C)/N=C(\CCN1CCCC1)CC(c1ccccc1)c1c(O)c2ccccc2oc1=O (configuration not stated) | – | > 39.8 µM | > 39.8 µM
Cc1cc2c(cc1Cl)SC(NNC(=O)c1ccco1)=NS2(=O)=O | – | > 200 µM | > 200 µM
CCN(CC)C(=O)Cn1c(C)cc2ccccc21 | – | > 200 µM | > 200 µM
CNc1nc2cc(OC)c(OC)cc2c(=O)[nH]1 | – | > 200 µM | 191 µM
CCCCCCCCCCCC(=O)NCc1ccc(OC(=O)CCCCCCCCCCC)c(OC)c1 | – | > 200 µM | 40.7 µM
CC1(C)OC2OC(C(O)COC(=O)c3ccccc3)C(Cl)C2O1 (configuration not stated) | – | > 219 µM | 151 µM
COc1ccc(/C=C2\CCCCC2=O)cc1 | inactive | – | –
CC(O)(P(=O)(O)O)P(=O)(O)OCC(O)CN1CCOCC1 (configuration not stated) | – | > 100 µM | > 100 µM
O=C(O)CCN1c2ccccc2Sc2ccccc21 | – | > 479 µM | 170 µM
Cn1nc2ccc([N+](=O)[O-])c(Cn3nnc4ccccc43)c2n1 | – | > 200 µM | 58.9 µM
O=C(O)c1ccc(Nc2cnc3ccc(C(F)(F)F)cc3n2)cc1 | – | > 200 µM | 11.2 µM
S=C(Nc1cccc(Cl)c1)Nc1ccccn1 | – | > 200 µM | > 200 µM
O=C(/C=C/c1ccc2c(c1)OCO2)NCCc1ccco1 | – | > 200 µM | 126 µM
